According to the supplement of paper PMC11208160:
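Note: IS621 bridge recombinase in Escherichia coli cells against a fixed T5 target plasmid.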

Assay: recombinant UMI read abundance after kanamycin selection (control-corrected) (log10(CPM+1)); higher = more efficient recombination; extreme values may be limits of the assay; sequences stand for … in AGTGCAGAGAAAATCGGCCAGTTTTCTCTGCCTGCAGTCCGCATGCCGTGGGACCCCTTGGGTTCTAACCTGTTGCCTAGATTTATGCAGCGGACTGCCTTTCTCCCAAAGTGATAAACCGG…AGGTTGGTTTCACT; site = the 11-nt donor
How it was run: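 For the IS621 bridge recombinase, a pooled Escherichia coli screen tested donor and donor-binding-loop pairs. Cells received the pair library together with a target plasmid encoding a fixed target and T7-inducible recombinase, then went onto IPTG (0.07 mM) plus kanamycin or unselected plates in duplicate. After PCR across the donor–target junction and sequencing, recombinant UMI counts were normalized to CPM, averaged, and scaled by control-derived factors. Each value is given as log10(CPM+1).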
In the case of “TCGGATCCATGGACCGGTTTTCCCGGTAATCCGTATTTGTC (site TCGGATCCTGA)”, the “recombinant UMI read abundance (log10)” value is reported as 0.795.
For “TCGGATGCATGGACCGGTTTTCCCGGTAATCCGTATTTGAG (site TCGGATGCTCT)”, the “recombinant UMI read abundance (log10)” value was 1.56.
With “TCGGTATCATGGACCGGTTTTCCCGGTAATCCGTATTTGCA (site ACAGTATCTTG)” the “recombinant UMI read abundance (log10)” value was 1.54.
In the case of “TCGGTATCATGGACCGGTTTTCCCGGTAATCCGTATTTGCA (site TCGGTATCTTG)”, the “recombinant UMI read abundance (log10)” value is reported as 2.31.
In the case of “TCGTAGCCATGGACCGGTTTTCCCGGTAATCCGTATTTGTG (site TCGTAGCCTCA)”, the “recombinant UMI read abundance (log10)” value is reported as 0.0471.
For “TCGTATGCATGGACCGGTTTTCCCGGTAATCCGTATTTGAC (site TCGTATGCTGT)”, the “recombinant UMI read abundance (log10)” value was 0.101.
For “TCGTCACCATGGACCGGTTTTCCCGGTAATCCGTATTTGTG (site TCGTCACCTCA)”, the “recombinant UMI read abundance (log10)” value was 0.0129.
With “TCGTGACCATGGACCGGTTTTCCCGGTAATCCGTATTTGCA (site TCGTGACCTTG)” the “recombinant UMI read abundance (log10)” value was 0.
For “TCGTTCCCATGGACCGGTTTTCCCGGTAATCCGTATTTGAC (site TCGTTCCCTGT)”, the “recombinant UMI read abundance (log10)” value was 0.
With “TCTAAAGCATGGACCGGTTTTCCCGGTAATCCGTATTTGAT (site ACTAAAGCTAT)” the “recombinant UMI read abundance (log10)” value was 0.
In the case of “TCTAAAGCATGGACCGGTTTTCCCGGTAATCCGTATTTGAT (site CCTAAAGCTAT)”, the “recombinant UMI read abundance (log10)” value is reported as 0.
With “TCTAAAGCATGGACCGGTTTTCCCGGTAATCCGTATTTGAT (site GCTAAAGCTAT)” the “recombinant UMI read abundance (log10)” value was 0.
For “TCTAAAGCATGGACCGGTTTTCCCGGTAATCCGTATTTGAT (site TCTAAAGCTAT)”, the “recombinant UMI read abundance (log10)” value was 0.373.
For “TCTAATTCATGGACCGGTTTTCCCGGTAATCCGTATTTGAA (site TCTAATTCTTT)”, the “recombinant UMI read abundance (log10)” value was 0.
For “TCTAGACCATGGACCGGTTTTCCCGGTAATCCGTATTTGCC (site TCTAGACCTGG)”, the “recombinant UMI read abundance (log10)” value was 0.
For “TCTATGCCATGGACCGGTTTTCCCGGTAATCCGTATTTGTT (site TCTATGCCTAA)”, the “recombinant UMI read abundance (log10)” value was 0.00238.
In the case of “TCTGATACATGGACCGGTTTTCCCGGTAATCCGTATTTGCT (site TCTGATACTAG)”, the “recombinant UMI read abundance (log10)” value is reported as 0.
With “TCTGCAACATGGACCGGTTTTCCCGGTAATCCGTATTTGAA (site TCTGCAACTTT)” the “recombinant UMI read abundance (log10)” value was 0.00363.
For “TCTGCACCATGGACCGGTTTTCCCGGTAATCCGTATTTGGA (site TCTGCACCTTC)”, the “recombinant UMI read abundance (log10)” value was 0.0216.
With “TCTGCAGCATGGACCGGTTTTCCCGGTAATCCGTATTTGAA (site TCTGCAGCTTT)” the “recombinant UMI read abundance (log10)” value was 0.00333.
With “TCTGCTGCATGGACCGGTTTTCCCGGTAATCCGTATTTGGC (site TCTGCTGCTGC)” the “recombinant UMI read abundance (log10)” value was 0.
With “TCTTACCCATGGACCGGTTTTCCCGGTAATCCGTATTTGGA (site TCTTACCCTTC)” the “recombinant UMI read abundance (log10)” value was 0.0207.
For “TCTTACTCATGGACCGGTTTTCCCGGTAATCCGTATTTGCA (site TCATACTCTTG)”, the “recombinant UMI read abundance (log10)” value was 0.465.
In the case of “TCTTACTCATGGACCGGTTTTCCCGGTAATCCGTATTTGCA (site TCCTACTCTTG)”, the “recombinant UMI read abundance (log10)” value is reported as 1.09.
For “TCTTACTCATGGACCGGTTTTCCCGGTAATCCGTATTTGCA (site TCGTACTCTTG)”, the “recombinant UMI read abundance (log10)” value was 0.946.
For “TCTTACTCATGGACCGGTTTTCCCGGTAATCCGTATTTGCA (site TCTTACTCTTG)”, the “recombinant UMI read abundance (log10)” value was 0.535.
With “TCTTATACATGGACCGGTTTTCCCGGTAATCCGTATTTGCT (site TCTTATACTAG)” the “recombinant UMI read abundance (log10)” value was 0.00302.
For “TCTTATCCATGGACCGGTTTTCCCGGTAATCCGTATTTGGA (site TCTTATCCTTC)”, the “recombinant UMI read abundance (log10)” value was 0.0232.
With “TCTTCCCCATGGACCGGTTTTCCCGGTAATCCGTATTTGTA (site TATTCCCCTTA)” the “recombinant UMI read abundance (log10)” value was 0.0172.
